Measurements as given in US7585460B2, “Method for inhibiting the biological acidification of water in contact with materials containing sulfur” (ENI S.p.A., priority 2003, dated 2009).

Key:
[1] = system: Thiobacilli (consortium); experiment: Effect of different salts on acidification, TM medium with sulfur powder and inoculated mixed culture (Example 7); type: cell-based, Thiobacillus
Method: The verification is aimed at discovering the effects deriving from the presence of different salts at varying concentrations on the same consortium.
A series of 12 100 ml flasks containing 50 ml of TM medium (with 0.4 g of sulfur powder), was inoculated with 1 ml of mixed culture containing 10^8 cells/ml.
• 3 control flasks containing TM and sulfur, with NaCl (0.16 M, 0.33 M, 0.56 M); • 3 flasks with TM, sulfur and Na2SO4 (0.12 M, 0.24 M, 0.56 M); • 3 flasks with TM, sulfur and KCl (0.13 M, 0.26 M, 0.56 M); • 3 flasks with TM, sulfur and KNO3 (0.09 M, 0.19 M, 0.56 M) The data collected are listed in Table 6.

[2] = system: Thiobacilli (consortium); experiment: as above; type: cell-based, Thiobacillus; details: salt 0.5 M, day 28
[3] = system: Thiobacilli (microbial consortium); experiment: Comparison of NaCl and SLS, TM medium with sulfur flowers and inoculated mixed culture (Example 6); type: cell-based, Thiobacillus; details: for O.D. / p.H.: C: 20 mg/l of SLS
Method: The experiment was aimed at comparing the action of SLS, a known bacteriostatic for Thiobacilli, and Sodium Chloride on the same microbial consortium.
A series of 6 100 ml flasks containing 50 ml of TM medium (with 0.4 g of sulfur flowers), were inoculated with 1 ml of mixed culture containing 10^8 cells/ml.
• A—2 control flasks containing TM and sulfur, without NaCl; • B—2 flasks with TM, sulfur and 33 g/l of NaCl; • C—2 flasks with TM, sulfur and 20 mg/l of SLS (concentration used in literature as bacteriostatic) The pH values and the bacterial growth were measured over a period of 34 days, by means of the increase in the absorbance.

[4] = system: Thiobacilli; details: bacteriostatic product; literature (Clark et al. 1998); cited from earlier work

## [Cl-].[K+] [KCl]
[1]; salt 0.13 M, day 0
  PH: 6.0
[1]; salt 0.13 M, day 2
  PH: 6.0
[1]; salt 0.13 M, day 6
  PH: 4.5
[1]; salt 0.13 M, day 9
  PH: 4.0
[1]; salt 0.13 M, day 12
  PH: 3.5
[1]; salt 0.13 M, day 15
  PH: 3.0
[1]; salt 0.13 M, day 18
  PH: 3.0
[1]; salt 0.13 M, day 20
  PH: 3.0
[1]; salt 0.13 M, day 24
  PH: 2.5
[1]; salt 0.13 M, day 28
  PH: 2.5
[1]; salt 0.13 M, day 30
  PH: 2.4
[1]; salt 0.13 M, day 40
  PH: 1.5
[1]; salt 0.26 M, day 0
  PH: 6.0
[1]; salt 0.26 M, day 2
  PH: 6.0
[1]; salt 0.26 M, day 6
  PH: 5.5
[1]; salt 0.26 M, day 9
  PH: 5.5
[1]; salt 0.26 M, day 12
  PH: 5.5
[1]; salt 0.26 M, day 15
  PH: 5.5
[1]; salt 0.26 M, day 18
  PH: 5.2
[1]; salt 0.26 M, day 20
  PH: 5.2
[1]; salt 0.26 M, day 24
  PH: 5.0
[1]; salt 0.26 M, day 28
  PH: 5.0
[1]; salt 0.26 M, day 30
  PH: 5.0
[1]; salt 0.26 M, day 40
  PH: 4.9
[1]; salt 0.56 M, day 0
  PH: 6.0
[1]; salt 0.56 M, day 2
  PH: 6.0
[1]; salt 0.56 M, day 6
  PH: 6.0
[1]; salt 0.56 M, day 9
  PH: 6.0
[1]; salt 0.56 M, day 12
  PH: 6.0
[1]; salt 0.56 M, day 15
  PH: 6.0
[1]; salt 0.56 M, day 18
  PH: 6.0
[1]; salt 0.56 M, day 20
  PH: 6.0
[1]; salt 0.56 M, day 24
  PH: 6.0
[1]; salt 0.56 M, day 28
  PH: 6.0
[1]; salt 0.56 M, day 30
  PH: 6.0
[1]; salt 0.56 M, day 40
  PH: 5.8

## O=[N+]([O-])[O-].[K+] [KNO3]
[1]; salt 0.09 M, day 0
  PH: 6.0
[1]; salt 0.09 M, day 2
  PH: 6.0
[1]; salt 0.09 M, day 6
  PH: 3.8
[1]; salt 0.09 M, day 9
  PH: 3.0
[1]; salt 0.09 M, day 12
  PH: 3.0
[1]; salt 0.09 M, day 15
  PH: 3.0
[1]; salt 0.09 M, day 18
  PH: 3.0
[1]; salt 0.09 M, day 20
  PH: 3.0
[1]; salt 0.09 M, day 24
  PH: 3.0
[1]; salt 0.09 M, day 28
  PH: 3.0
[1]; salt 0.09 M, day 30
  PH: 3.0
[1]; salt 0.09 M, day 40
  PH: 3.0
[1]; salt 0.19 M, day 0
  PH: 6.0
[1]; salt 0.19 M, day 2
  PH: 6.0
[1]; salt 0.19 M, day 6
  PH: 4.8
[1]; salt 0.19 M, day 9
  PH: 4.0
[1]; salt 0.19 M, day 12
  PH: 4.0
[1]; salt 0.19 M, day 15
  PH: 4.0
[1]; salt 0.19 M, day 18
  PH: 4.0
[1]; salt 0.19 M, day 20
  PH: 4.0
[1]; salt 0.19 M, day 24
  PH: 4.0
[1]; salt 0.19 M, day 28
  PH: 4.0
[1]; salt 0.19 M, day 30
  PH: 3.3
[1]; salt 0.19 M, day 40
  PH: 3.2
[1]; salt 0.5 M, day 0
  PH: 6.0
[1]; salt 0.5 M, day 2
  PH: 6.0
[1]; salt 0.5 M, day 6
  PH: 6.0
[1]; salt 0.5 M, day 9
  PH: 6.0
[1]; salt 0.5 M, day 12
  PH: 6.0
[1]; salt 0.5 M, day 15
  PH: 6.0
[1]; salt 0.5 M, day 18
  PH: 6.0
[1]; salt 0.5 M, day 20
  PH: 6.0
[1]; salt 0.5 M, day 24
  PH: 6.0
[1]; salt 0.5 M, day 30
  PH: 6.0
[1]; salt 0.5 M, day 40
  PH: 5.8
[2]
  PH: 6.0

## CCCCCCCCCCCCOS(=O)(=O)[O-].[Na+] [SLS, Sodium Lauryl Sulfate, reference compound]
[3]; 33 g/l NaCl, 20 mg/l SLS
  inhibition of the acidification of water in contact with elemental sulfur: capable of inhibiting the acidification
[3]; day 0
  O.D.: 0.014
  p.H.: 6.0
[3]; day 3
  O.D.: 0.013
  p.H.: 4.5
[3]; day 5
  O.D.: 0.042
  p.H.: 4.5
[3]; day 8
  O.D.: 0.073
  p.H.: 4.0
[3]; day 11
  O.D.: 0.067
  p.H.: 4.0
[3]; day 16
  O.D.: 0.098
  p.H.: 3.8
[3]; day 21
  O.D.: 0.080
  p.H.: 3.8
[3]; day 23
  O.D.: 0.035
  p.H.: 3.8
[3]; day 28
  O.D.: 0.033
  p.H.: 3.2
[3]; day 31
  O.D.: 0.020
  p.H.: 3.2
[4]
  reduction of corrosion of metallic containers used for transporting or containing sulfur: effective for reducing the corrosion

## O=S(=O)([O-])[O-].[Na+].[Na+] [Na2SO4]
[1]; salt 0.12 M, day 0
  PH: 6.0
[1]; salt 0.12 M, day 2
  PH: 6.0
[1]; salt 0.12 M, day 6
  PH: 3.5
[1]; salt 0.12 M, day 9
  PH: 2.8
[1]; salt 0.12 M, day 12
  PH: 2.8
[1]; salt 0.12 M, day 15
  PH: 2.8
[1]; salt 0.12 M, day 18
  PH: 2.5
[1]; salt 0.12 M, day 20
  PH: 1.8
[1]; salt 0.12 M, day 24
  PH: 1.8
[1]; salt 0.12 M, day 28
  PH: 1.6
[1]; salt 0.12 M, day 30
  PH: 1.6
[1]; salt 0.12 M, day 40
  PH: 1.4
[1]; salt 0.24 M, day 0
  PH: 6.0
[1]; salt 0.24 M, day 2
  PH: 6.0
[1]; salt 0.24 M, day 6
  PH: 4.5
[1]; salt 0.24 M, day 9
  PH: 4.0
[1]; salt 0.24 M, day 12
  PH: 3.5
[1]; salt 0.24 M, day 15
  PH: 3.0
[1]; salt 0.24 M, day 18
  PH: 2.8
[1]; salt 0.24 M, day 20
  PH: 2.0
[1]; salt 0.24 M, day 24
  PH: 2.0
[1]; salt 0.24 M, day 28
  PH: 1.7
[1]; salt 0.24 M, day 30
  PH: 1.5
[1]; salt 0.24 M, day 40
  PH: 1.5
[1]; salt 0.56 M, day 0
  PH: 6.0
[1]; salt 0.56 M, day 2
  PH: 6.0
[1]; salt 0.56 M, day 6
  PH: 6.0
[1]; salt 0.56 M, day 9
  PH: 6.0
[1]; salt 0.56 M, day 12
  PH: 6.0
[1]; salt 0.56 M, day 15
  PH: 5.9
[1]; salt 0.56 M, day 18
  PH: 5.9
[1]; salt 0.56 M, day 20
  PH: 5.9
[1]; salt 0.56 M, day 24
  PH: 5.9
[1]; salt 0.56 M, day 28
  PH: 5.9
[1]; salt 0.56 M, day 30
  PH: 5.9
[1]; salt 0.56 M, day 40
  PH: 5.8
